Data on two molecules can be found in ChEMBL document CHEMBL3232833, “5,10-seco-neo-clerodanes and neo-clerodanes from Salvia microphylla” (J Nat Prod, 2014).

pIC50: −log10 of the molar value.

Assay [1] is described as follows: Cytotoxicity against human HCT15 cells after 48 hrs by sulforhodamine B method. The format is functional, cell-based. Conditions: HCT-15, 48 h. Background: In SRB staining, fixed cells bind dye roughly in proportion to their protein.
In the next assay the test system is K562. The assay is described as follows: Cytotoxicity against human K562 cells after 48 hrs by sulforhodamine B method. The format is functional, cell-based. Conditions: K562, 48 h.
A further assay has as its system MCF7. Kind of assay: Cytotoxicity against human MCF7 cells after 48 hrs by sulforhodamine B method. The format is functional, cell-based. Conditions: MCF7, 48 h.
The test system of a further assay is PC-3. Kind of assay: Cytotoxicity against human PC3 cells after 48 hrs by sulforhodamine B method. It counts as functional, cell-based. The settings on record: PC-3, 48 h.
Assay [2] can be described thus: Cytotoxicity against human SKLU1 cells after 48 hrs by sulforhodamine B method. It counts as functional, cell-based. The settings on record: SK-LU-1, 48 h.
The subject of the next assay is U-251. Kind of assay: Cytotoxicity against human U251 cells after 48 hrs by sulforhodamine B method. It counts as functional, cell-based. Conditions: U-251, 48 h.
The next assay concerns Mus musculus. Kind of assay: Antiinflammatory activity in CD1 mouse assessed as reduction of TPA-induced ear edema per ear after 4 hrs. It counts as functional, organism-based.

For `C[C@]12C[C@H](c3ccoc3)OC(=O)[C@H]1CC[C@@]13COC(=O)C1=CC=C[C@@]32O`, the pIC50 (in assay [1]; with K562; with MCF7; in the assay with PC-3; in assay [2]; in the assay with U-251) was less than 5.00 throughout. For the same molecule, the IC50 in the assay on Mus musculus is greater than 1 µmol.
Turning to `C[C@]12C[C@H](c3ccoc3)OC(=O)[C@H]1CCC1=C(/C=C\CC2=O)C(=O)OC1`, the pIC50 (in assay [1]; in the assay with K562; with MCF7; in the assay with PC-3; in assay [2]; in the assay with U-251) was less than 5.00 throughout. Also, the IC50 in the assay with Mus musculus is greater than 1 µmol.
